pIC50: −log10 of the molar value. ≈ marks a conversion by molar mass, not a printed value.
Legend:
M14 = assay: Cytotoxicity against human M14 cells; format: functional
NCI-H460 = assay: Cytotoxicity against human NCI-H460 cells; format: functional
[1] = Selectivity index, ratio of IC50 for african green monkey Vero cells to MIC for Mycobacterium tuberculosis H37Rv ATCC 27294 by low oxygen recovery assay; format: functional
[2] = system: Mycobacterium tuberculosis; assay: Antitubercular activity against Mycobacterium tuberculosis H37Rv ATCC 27294 after 7 days by low oxygen recovery assay; format: functional; details: H37Rv ATCC 27294, 168 h
DU-145 = assay: Cytotoxicity against human DU145 cells; format: functional
Vero = assay: Cytotoxicity against african green monkey Vero cells after 72 hrs by MTS assay; details: Chlorocebus sabaeus, Vero, 72 h
HT-29 = assay: Cytotoxicity against human HT-29 cells; format: functional
MCF7 = assay: Cytotoxicity against human MCF7 cells; format: functional
[3] = Selectivity index, ratio of IC50 for african green monkey Vero cells to MIC for Mycobacterium tuberculosis H37Rv ATCC 27294 by microplate alamar blue assay; format: functional
[4] = system: Mycobacterium tuberculosis; assay: Antitubercular activity against Mycobacterium tuberculosis H37Rv ATCC 27294 after 7 days by microplate alamar blue assay; format: functional; details: H37Rv ATCC 27294, 168 h
[5] = Cytotoxicity against BALB/c mouse macrophages after 48 hrs by trypan blue dye exclusion method; format: cell-based; details: Macrophage
Leishmania amazonensis [6] = assay: Antileishmanial activity against Leishmania amazonensis MHOM/BR/76/LTB-012 amastigotes infected BALB/c mouse macrophages after 48 hrs by MTT assay; format: functional, organism-based; details: MHOM/BR/76/LTB-012, 48 h
Trypanosoma cruzi = assay: Antitrypanosomal activity against Trypanosoma cruzi tulahuen C4 trypomastigotes infected in african green monkey Vero cells assessed as CPRG cleavage after 120 hrs by microplate reader; format: functional, organism-based
K562 = assay: Cytotoxicity against human K562 cells; format: functional
[7] = Selectivity index, ratio of IC50 for african green monkey Vero cells to IC50 for Trypanosoma cruzi tulahuen C4; details: Vero cells
[8] = Selectivity index, ratio of IC50 for BALB/c mouse macrophages to IC50 for Leishmania amazonensis MHOM/BR/76/LTB-012
[9] = Cytotoxicity against BALB mouse 3T3 cells; format: cell-based; details: BALB 3T3 cells
Leishmania peruviana = assay: Antileishmanial activity against Leishmania peruviana MHOM/PE/LCA08 promastigote infected BALB/c mouse macrophages after 48 hrs by Giemsa staining method; format: functional, organism-based; details: MHOM/PE/LCA08, 48 h
Leishmania amazonensis [10] = assay: Antileishmanial activity against Leishmania amazonensis Lma CL1 amastigotes infected BALB/c mouse macrophages after 48 hrs by Giemsa staining method; format: functional, organism-based; details: Lma CL1, 48 h
Leishmania braziliensis = assay: Antileishmanial activity against Leishmania braziliensis MHOM/PE/PER006 promastigote infected BALB/c mouse macrophages after 48 hrs by Giemsa staining method; format: functional, organism-based; details: MHOM/PE/PER006, 48 h

Row | Compound | GI50 (M14) | GI50 (NCI-H460) | Ratio IC50 [1] | MIC [2] | GI50 (DU-145) | pIC50 (Vero) | GI50 (HT-29) | GI50 (MCF7) | Ratio IC50 [3] | MIC [4] | pIC50 [5] | pIC50 (Leishmania amazonensis [6]) | pIC50 (Trypanosoma cruzi) | GI50 (K562) | selectivity ratio [7] | Ratio IC50 [8] | GI50 [9] | pIC50 (Leishmania peruviana) | pIC50 (Leishmania amazonensis [10]) | pIC50 (Leishmania braziliensis)
1 | C(=N\Nc1ncnc2sc3c(c12)CCCC3)/c1ccco1 | 11.1 µM | 7.1 µM | 4.2 | 9.7 µM (≈ 2.89 µg/mL) | 15.6 µM | 5.00 | 8.5 µM | 1 µM | 1 | 39.9 µM (≈ 11.9 µg/mL) | 5.62 | 5.38 | 4.79 | 4 µM | 0.6 | 0.6 | 7.8 µM |  |  | 
2 | Brc1ccccc1/C=N/Nc1ncnc2sc3c(c12)CCCC3 | 15.4 µM | 7.7 µM |  |  | 7.1 µM | 5.11 | 8 µM | 4.5 µM | 0.8 | 24.3 µM (≈ 9.41 µg/mL) | 5.13 | 5.89 | 5.03 | 3 µM | 0.8 | 5.8 | 11.2 µM |  |  | 
3 | COc1cccc(/C=N/Nc2ncnc3sc4c(c23)CCCC4)c1 | 143 µM | 16.2 µM |  |  | 17.7 µM | 4.83 | 7.4 µM | 14.9 µM | 0.6 | 119 µM (≈ 40.4 µg/mL) | 4.79 | 4.44 | 4.77 | 15.5 µM | 0.9 | 0.5 | 17.6 µM |  |  | 
4 | C(=N\Nc1ncnc2sc3c(c12)CCCC3)/c1ccccc1 | 18 µM | 18.2 µM |  |  | 20 µM | 4.59 | 12.5 µM | 11.2 µM | 0.5 | 75.9 µM (≈ 23.4 µg/mL) | 4.55 | 4.36 | 4.84 | 13.2 µM | 1.8 | 0.6 | 21.7 µM |  |  | 
5 | Oc1ccc(/C=N/Nc2ncnc3sc4c(c23)CCCC4)cc1 | 17.2 µM | 14.9 µM |  |  | 20.8 µM | 4.91 | 19.5 µM | 17 µM | 0.6 | 72.1 µM (≈ 23.4 µg/mL) | 3.75 | 4.38 | 4.95 | 15.8 µM | 1.1 | 4.3 | 6.6 µM |  |  | 
6 | Brc1ccc(/C=N/Nc2ncnc3sc4c(c23)CCCC4)cc1 | 33.6 µM | 10.5 µM |  |  | 14.6 µM | 4.81 | 12.4 µM | 5.9 µM |  | > 250 µM | 5.11 | 6.05 | 4.69 | 5.7 µM | 0.8 | 8.8 | 17.4 µM | < 5.70 | < 5.70 | < 5.70
7 | Clc1ccccc1/C=N/Nc1ncnc2sc3c(c12)CCCC3 | > 170 µM | 62.9 µM |  |  | 77.8 µM | 4.84 | 56.5 µM | 22 µM | 0.7 | 124 µM (≈ 42.6 µg/mL) | 4.95 | 5.66 | 4.67 | 19.8 µM | 0.7 | 5 | 88.1 µM |  |  | 
8 | FC(F)(F)c1ccccc1/C=N/Nc1ncnc2sc3c(c12)CCCC3 | 6.5 µM | 5.4 µM |  | 15.4 µM (≈ 5.8 µg/mL) | 3.5 µM | 5.10 | 4.5 µM | 4.8 µM | 1.3 | 15.7 µM (≈ 5.91 µg/mL) | 5.51 | 5.92 | 4.86 | 1.7 µM | 0.6 | 2.6 | 15.8 µM |  |  | 

Reference: ChEMBL document CHEMBL1156236, “Trypanoside, anti-tuberculosis, leishmanicidal, and cytotoxic activities of tetrahydrobenzothienopyrimidines” (Bioorg Med Chem, 2010)
